Source: patent US7824687B2, “Clustered multi-antigenic carbohydrate constructs, methods for their preparation, and uses thereof” (Sloan-Kettering Institute For Cancer Research, priority 1999, dated 2010)

What was measured:
[1] = test system: GD3-KLH and MUC1-KLH conjugates; settings: mouse; cited from earlier work
monoclonal antibody F12 = test: Binding to monoclonal antibody F12 (ELISA, immune thin layer chromatography, inhibition)
Description: In yet another example, a fucosyl GM1-KLH glycoconjugate is generated according to the method of the present invention, as discussed in Example 1. […] Clearly, the synthetic fucosyl GM1 pentenyl glycoside provides the antigenic epitope with which F12 reacts on SCLC cells.

Substance | augmentation of antibody responses compared to the conjugates alone [1] | binding to monoclonal antibody F12 (monoclonal antibody F12; ELISA and immune thin layer chromatography assays, prior to conjugation) | inhibition of reactivity of natural fucosyl GM1 with F12 (monoclonal antibody F12; preincubation of F12)
QS-21 | 1000-100,000 fold |  | 
fucosyl GM1 pentenyl glycoside [n-pentenyl fucosyl GM1] |  | shown to bind | completely inhibits
